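Cultured in 96-well plates, cells were exposed to test compound for 48 hours across five concentrations. The concentration for 50% growth inhibition is given as GI50.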 The source made the active and inactive calls. Rule as the data show it: active = GI50 up to about 1.1 µM and inactive = higher.
How the values were obtained:
Test in all cases: growth of human tumour cells (NCI), 48 h
Malme-3M = test system: Malme-3M
NCI-H226 = test system: NCI-H226
SK-MEL-5 = test system: SK-MEL-5
OVCAR-5 = test system: OVCAR-5
OVCAR-3 = test system: OVCAR-3
COLO 205 = test system: COLO 205
HOP-92 = test system: HOP-92
HL-60 = test system: HL-60
UACC-62 = test system: UACC-62
A498 = test system: A498
RPMI-8226 = test system: RPMI-8226
SN12C = test system: SN12C
HOP-62 = test system: HOP-62
SK-MEL-2 = test system: SK-MEL-2
NCI-H522 = test system: NCI-H522
LXFL 529 = test system: LXFL 529
A549 = test system: A549
HCT-116 = test system: HCT-116

Measured: GI50

CCOc1ccc(/N=C/c2c3ccccc3nc3ccccc23)cc1
inactive: Malme-3M 49.5 µM | NCI-H226 > 100 µM | SK-MEL-5 38.9 µM | OVCAR-5 > 10 µM | OVCAR-3 31.1 µM | COLO 205 > 100 µM | HOP-92 > 100 µM | HL-60 11 µM | UACC-62 95.3 µM | A498 68.1 µM | RPMI-8226 21.8 µM | SN12C > 100 µM | HOP-62 39.4 µM | SK-MEL-2 31.3 µM | NCI-H522 49 µM | LXFL 529 24.7 µM | A549 74.6 µM

CCCCCN(CCCCC)C(=O)[C@H](CCC(=O)O)NC(=O)c1cc2ccccc2[nH]1
inactive: Malme-3M 94.8 µM | NCI-H226 36.6 µM | OVCAR-5 > 100 µM | OVCAR-3 42.7 µM | COLO 205 > 100 µM | HOP-92 32.3 µM | HL-60 29.3 µM | UACC-62 28.1 µM | A498 > 100 µM | RPMI-8226 21.8 µM | SN12C 48.5 µM | HOP-62 56 µM | SK-MEL-2 41.9 µM | NCI-H522 20.2 µM | LXFL 529 56.6 µM | A549 88.5 µM | HCT-116 28.3 µM

C#CCOCn1cnc2c(S)ncnc21
inactive: Malme-3M > 100 µM | NCI-H226 > 100 µM | SK-MEL-5 > 100 µM | OVCAR-5 > 100 µM | OVCAR-3 > 100 µM | COLO 205 > 100 µM | HOP-92 > 100 µM | HL-60 > 100 µM | UACC-62 > 100 µM | A498 > 100 µM | RPMI-8226 > 100 µM | SN12C > 100 µM | HOP-62 > 100 µM | SK-MEL-2 > 100 µM | NCI-H522 > 100 µM | LXFL 529 > 100 µM | A549 > 100 µM

CC1=NN(C(=O)CC(=O)NC(=O)CC(=O)Nc2ccccc2F)C(=O)C1/N=N/c1ccc([N+](=O)[O-])cc1 (centres undefined)
inactive: Malme-3M 39 µM | NCI-H226 33.1 µM | SK-MEL-5 44.4 µM | OVCAR-5 97.7 µM | OVCAR-3 28.6 µM | COLO 205 31.2 µM | HOP-92 51.4 µM | UACC-62 55.3 µM | A498 34.3 µM | RPMI-8226 22.6 µM | SN12C > 100 µM | HOP-62 56.5 µM | SK-MEL-2 > 100 µM | LXFL 529 37.2 µM | A549 35 µM | HCT-116 21 µM

Nc1cc2c(C3OC(CO)C(O)C3O)n[nH]c2c(=S)[nH]1 (centres undefined)
inactive: Malme-3M > 100 µM | NCI-H226 > 100 µM | SK-MEL-5 > 100 µM | OVCAR-5 > 100 µM | COLO 205 > 100 µM | HOP-92 > 100 µM | HL-60 41.2 µM | UACC-62 > 100 µM | A498 > 100 µM | RPMI-8226 > 100 µM | SN12C > 100 µM | HOP-62 > 100 µM | SK-MEL-2 98.2 µM | NCI-H522 > 100 µM | LXFL 529 > 100 µM | A549 > 100 µM | HCT-116 > 100 µM
